One series deals with mGlu4 (UniProt Q14833). As to conditions: read-out: mGlu4 PAM EC50.
The target in the next series is T1, human mGluR4 (Homo sapiens, UniProt Q14833).
T1 construct: expressed in transfected cells; host or cells: CHO cells
Kind of series: human mGluR4 potentiation assay, CHO cells transfected with human mGluR4, Ca2+-sensitive dye. The series is classed as cell-based. The following applies: human mGlu4; read-out: hmGlu4 EC50. On the procedure:
The disclosed compounds and compositions can be evaluated for their ability to act as a potentiator of metabotropic glutamate receptor activity, in particular mGluR4 activity, by any suitable known methodology known in the art. For example, Chinese Hamster Ovary (CHO) cells transfected with human mGluR4 or HEK cells co-transfected with rat mGluR4 and the G-protein regulated Inwardly Rectifying Potassium channel (GIRK) were plated in clear bottom assay plates for assay in a Hamamatsu FDSS Fluorometric Plate Reader. The cells were loaded with either a Ca2+-sensitive fluorescent dye or the thallium responsive dye and the plates were washed and placed into a suitable kinetic plate reader. For human mGluR4 assays, a fluorescence baseline was established for 3-5 seconds, the disclosed compounds were then added to the cells, and the response in cells was measured. Approximately two and a half minutes later, a concentration of mGluR4 orthosteric agonist (e.g. glutamate or L-AP4) eliciting approximately 20% (EC20) of the maximal agonist response was added to the cells, and the response was measured. Two minutes later, a concentration of mGluR4 agonist (e.g. glutamate or L-AP4) eliciting 80% (EC80) of the maximal agonist response was added to the cells, and the response was measured. For rat mGluR4/GIRK experiments, a baseline was established for approximately five seconds, disclosed compounds were added, and either an EC20 or EC80 concentration of agonist was added approximately two and one half minutes later. Potentiation of the agonist response of mGluR4 by the disclosed compounds was observed as an increase in response to the EC20 concentration of agonist in the presence of compound compared to the response to agonist in the absence of compound. Similarly, antagonism of the agonist response of mGluR4 by the disclosed compounds was observed as a decrease in response to the EC80 concentration of agonist in the presence of compound compared to the response to agonist in the absence of compound.
The above described assay operated in two modes. In the first mode, a range of concentrations of the disclosed compounds are added to cells, followed by a single fixed concentration of agonist. If the compound acts as a potentiatior, an EC50 value for potentiation and a maximum extent of potentiation by the compound at this concentration of agonist is determined by non-linear curve fitting. If the compound acts as a noncompetitive antagonist, an IC50 value is determined by non-linear curve fitting. In the second mode, several fixed concentrations of the disclosed compounds are added to various wells on a plate, followed by a range in concentrations of agonist for each concentration of disclosed compound. The EC50 values for the agonist at each concentration of compound are determined by non-linear curve fitting. A decrease in the EC50 value of the agonist with increasing concentrations of the sample compound (a leftward shift of the agonist concentration-response curve) is an indication of the degree of mGluR4 potentiation at a given concentration of the sample compound. A decrease in the maximal response of the agonist with increasing concentrations of the sample compounds, with or without a rightward shift in agonist potency, is an indication of the degree of noncompetitive antagonism at mGluR4. The second mode also indicates whether the sample compounds also affect the maximum response to mGluR4 to agonists.

Series [1] in a line: in vitro DMPK: human intrinsic and predicted hepatic clearance. The series is classed as in vitro ADME. The following applies: for Human CLINT: in vitro, unit assumed; for Human CLHEP: predicted human clearance, human hepatic blood flow 20 mL/min/kg. The source says: (§1) As the only drug that interact with mGlu4 is free drug, the compounds of the present invention have unexpectedly exceptional profiles as putative drug candidates.

A short description of series [2]: in vitro DMPK: rat intrinsic and predicted hepatic clearance. The following applies: for Rat CLINT: in vitro, unit assumed; for Rat CLHEP: predicted. It counts as in vitro ADME.
From the text: as §1

Series [3] in a line: free drug level (fu) in human plasma. It counts as in vitro ADME.
From the text: as §1

Series [4] is described as follows: free drug level (fu) in rat plasma. The series is classed as in vitro ADME.
From the text: as §1

Series [5] can be described thus: rat brain homogenate binding (BHB). The series is classed as in vitro ADME. As to conditions: read-out: Rat BHB fu.
From the text: as §1

T1 sequence (Q14833 33-912): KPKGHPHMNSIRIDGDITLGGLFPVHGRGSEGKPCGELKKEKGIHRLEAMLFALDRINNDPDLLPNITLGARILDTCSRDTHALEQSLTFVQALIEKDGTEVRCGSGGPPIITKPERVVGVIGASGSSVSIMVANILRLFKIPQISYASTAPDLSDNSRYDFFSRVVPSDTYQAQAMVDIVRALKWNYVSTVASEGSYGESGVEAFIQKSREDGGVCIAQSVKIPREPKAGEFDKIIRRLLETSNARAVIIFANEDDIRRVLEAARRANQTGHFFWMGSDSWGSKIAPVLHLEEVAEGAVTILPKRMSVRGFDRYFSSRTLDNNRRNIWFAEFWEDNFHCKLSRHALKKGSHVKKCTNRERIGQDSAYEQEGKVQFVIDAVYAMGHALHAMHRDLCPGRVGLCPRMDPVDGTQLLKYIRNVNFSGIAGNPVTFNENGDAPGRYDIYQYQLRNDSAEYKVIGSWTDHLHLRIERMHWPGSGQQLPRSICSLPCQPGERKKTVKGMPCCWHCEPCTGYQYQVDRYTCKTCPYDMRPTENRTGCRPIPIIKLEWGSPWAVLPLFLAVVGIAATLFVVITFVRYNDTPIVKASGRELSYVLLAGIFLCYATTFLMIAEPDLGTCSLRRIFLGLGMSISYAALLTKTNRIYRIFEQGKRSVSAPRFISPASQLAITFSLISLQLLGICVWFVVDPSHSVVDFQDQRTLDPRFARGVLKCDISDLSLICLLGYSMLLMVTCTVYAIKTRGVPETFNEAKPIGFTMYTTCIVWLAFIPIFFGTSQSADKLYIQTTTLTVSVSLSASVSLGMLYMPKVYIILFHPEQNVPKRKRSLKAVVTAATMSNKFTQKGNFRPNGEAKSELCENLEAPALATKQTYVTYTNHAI

Regarding `CN(C(=O)c1nccc2cc(Nc3n[nH]c4cccnc34)ccc12)C1CC(F)C1` (centres unmarked) [Compound 20], the EC50 at mGlu4 came to 546 nM.
Same read-out and setting: the figure for `CN(C(=O)c1nccc2cc(Nc3n[nH]c4ncccc34)ccc12)C1CC(F)C1` (centres unmarked) [Compound 22] is 1800 nM; for `CN(C(=O)c1nccc2cc(Nc3n[nH]c4cccnc34)ccc12)C1CC(F)(F)C1` [Compound 23] it is 339 nM.
The same measure, in the same setting: the figure for `CN(C(=O)c1nccc2cc(Nc3n[nH]c4ncccc34)ccc12)C1CC(F)(F)C1` [Compound 24] is 1240 nM; for `CN(C(=O)c1nccc2cc(Nc3n[nH]c4ncccc34)ccc12)C1CCOC1` (centres unmarked) [Compound 25] it is 4370 nM; for `CN(C(=O)c1nccc2cc(Nc3n[nH]c4cccnc34)ccc12)C1CCOC1` (centres unmarked) [Compound 26] it is 1850 nM.
For the compound `O=C(c1nccc2cc(Nc3n[nH]c4cccnc34)ccc12)N1CCCC(F)(F)C1` [Example 4], the EC50 on human mGluR4 is 117 nM. In series [1], the Human CLINT is 172 mL/min/kg. Further, in series [1], the “Human CLHEP” value was 18.7 mL/min/kg. Further, the Rat CLINT in series [2] was 885 mL/min/kg. In addition, the Rat CLHEP in series [2] was 64.9 mL/min/kg. Besides, the figures for the fraction unbound in series [3], in series [4] and in series [5] were 0.015, 0.158 and 0.05, respectively.
In the case of `O=C(c1nccc2cc(Nc3n[nH]c4cccnc34)ccc12)N1CC[C@H](F)C1` [Example 5], the EC50 at human mGluR4 was found to be 366 nM. In series [1], the Human CLINT is 6.91 mL/min/kg and the “Human CLHEP” value was 5.20 mL/min/kg. For the same compound, in series [2], the Rat CLINT is 32.5 mL/min/kg and the Rat CLHEP is 22.2 mL/min/kg. In series [3], this compound displayed a fraction unbound of 0.094. The same compound returned a fraction unbound in series [4] of 0.327. Besides, the fraction unbound in series [5] turned out to be 0.095.
`CS(=O)(=O)N1CCN(C(=O)c2nccc3cc(Nc4n[nH]c5cccnc45)ccc23)CC1` [Example 6]: the EC50 at human mGluR4 came out at 268 nM. In series [1], the Human CLINT was 7.44 mL/min/kg and the “Human CLHEP” value is reported as 5.49 mL/min/kg. In series [2], the Rat CLINT is 230 mL/min/kg and the Rat CLHEP was 53.7 mL/min/kg. Besides, in series [3], the fraction unbound worked out at 0.134. Besides, the fraction unbound in series [4] amounted to 0.328. Besides, the fraction unbound in series [5] was 0.085.
`O=C(c1nccc2cc(Nc3n[nH]c4cccnc34)ccc12)N1CCC(F)(F)CC1` [Example 7]: the EC50 at human mGluR4 turned out to be 57.7 nM. Besides, in series [1], the Human CLINT is 87.4 mL/min/kg and the “Human CLHEP” value is 16.9 mL/min/kg. For the same compound, in series [2], the Rat CLINT is 568 mL/min/kg and the Rat CLHEP is 62.3 mL/min/kg. Besides, the fraction unbound in series [3] stood at 0.094. This compound also gave a fraction unbound in series [4] of 0.168. In series [5], the fraction unbound worked out at 0.055.
Consider `O=C(NC1CC(F)C1)c1nccc2cc(Nc3n[nH]c4cccnc34)ccc12` (centres unmarked) [Example 8], for which the EC50 on human mGluR4 was 21 nM. Further, in series [1], the Human CLINT is 6.61 mL/min/kg and the “Human CLHEP” value is recorded as 5.03 mL/min/kg. Further, in series [2], the Rat CLINT was 32.4 mL/min/kg and the Rat CLHEP was 22.2 mL/min/kg. This compound also displayed a fraction unbound in series [3] of 0.11. Moreover, the fraction unbound in series [4] was 0.107. In addition, the fraction unbound in series [5] was determined as 0.02.
With `O=C(NC1CC(F)(F)C1)c1nccc2cc(Nc3n[nH]c4cccnc34)ccc12` [Example 9], the EC50 on human mGluR4 is 9.91 nM. Besides, in series [1], the Human CLINT is 9.01 mL/min/kg and the “Human CLHEP” value is 6.30 mL/min/kg. Besides, in series [2], the Rat CLINT was 32.8 mL/min/kg and the Rat CLHEP is 22.3 mL/min/kg. For the same compound, the fraction unbound in series [3] was found to be 0.09. The fraction unbound in series [4] was found to be 0.076. Also, the fraction unbound in series [5] was found to be 0.01.
For the compound `COC1CC(NC(=O)c2nccc3cc(Nc4n[nH]c5cccnc45)ccc23)C1` (centres unmarked) [Example 10], on human mGluR4, the EC50 is 25.5 nM. For the same compound, in series [1], the Human CLINT was 10.2 mL/min/kg and the “Human CLHEP” value is reported as 6.86 mL/min/kg. Moreover, in series [2], the Rat CLINT is 26.7 mL/min/kg and the Rat CLHEP is 19.3 mL/min/kg. The same compound registered a fraction unbound in series [3] of 0.059. Moreover, the fraction unbound in series [4] was 0.089. Besides, the fraction unbound in series [5] was determined as 0.082.
As for `O=C(NC1CCOC1)c1nccc2cc(Nc3n[nH]c4cccnc34)ccc12` (centres unmarked) [Example 11], the concentration for a half-maximal effect (EC50) at human mGluR4 worked out at 59.9 nM. Besides, in series [1], the Human CLINT was 0.63 mL/min/kg and the “Human CLHEP” value is listed as 0.61 mL/min/kg. In addition, in series [2], the Rat CLINT is 2.82 mL/min/kg and the Rat CLHEP was 2.71 mL/min/kg. In addition, in series [3], the fraction unbound worked out at 0.188. The same compound showed a fraction unbound in series [4] of 0.229. Further, the fraction unbound in series [5] worked out at 0.068.
Consider `O=C(NC1CC(F)(F)C1)c1nccc2cc(Nc3n[nH]c4ncccc34)ccc12` [Example 27], for which the EC50 at human mGluR4 came out at 56.2 nM. Besides, in series [1], the Human CLINT is 7.64 mL/min/kg and the “Human CLHEP” value is given as 5.60 mL/min/kg. In addition, in series [2], the Rat CLINT was 37 mL/min/kg and the Rat CLHEP was 24.2 mL/min/kg. The compound further yielded a fraction unbound in series [3] of 0.073. Besides, the fraction unbound in series [4] was determined as 0.075. Also, in series [5], the fraction unbound is 0.009.
For the compound `O=C(c1nccc2cc(Nc3n[nH]c4ncccc34)ccc12)N1CCC(F)(F)CC1` [Example 28], the EC50 on human mGluR4 was found to be 511 nM. For the same compound, in series [1], the Human CLINT is 83.4 mL/min/kg. Also, in series [1], the “Human CLHEP” value is reported as 16.8 mL/min/kg. Moreover, in series [2], the Rat CLINT is 328 mL/min/kg. Moreover, in series [2], the Rat CLHEP was 57.7 mL/min/kg. The fraction unbound in series [3] was 0.218; in series [4] it was 0.179; in series [5], 0.028.
